In ChEMBL document CHEMBL1201862, “PubChem BioAssay data set” (2004):
Where “and” joins values, the source holds several entries; their conditions need not be identical. Equal values may be shown once.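 Tested at 5 concentrations; 48 h exposure; 96-well plates; endpoints linearly interpolated, else capped at highest concentration. The concentration for 50% growth inhibition is given as GI50.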 Calls of active or inactive are those of the source. No stated cut-off is given here; in the data, active = GI50 up to about 1.1 µM and inactive = higher.

Experiments:
Assay in all cases: NCI anticancer screen, dose series, 48 h
[1] = system: A498
[2] = system: A549
[3] = system: CCRF-CEM
[4] = system: EKVX
[5] = system: HCC 2998
[6] = system: HCT-116
[7] = system: HL-60
[8] = system: HOP-62
[9] = system: HOP-92
[10] = system: KM12
[11] = system: MCF7
[12] = system: MDA-N
[13] = system: MOLT-4
[14] = system: NCI-H522
[15] = system: RPMI-8226
[16] = system: SN12C
[17] = system: SR
[18] = system: SW-620
[19] = system: TK-10
[20] = system: UACC-257

Compound | GI50 [1] | GI50 [2] | GI50 [3] | GI50 [4] | GI50 [5] | GI50 [6] | GI50 [7] | GI50 [8] | GI50 [9] | GI50 [10] | GI50 [11] | GI50 [12] | GI50 [13] | GI50 [14] | GI50 [15] | GI50 [16] | GI50 [17] | GI50 [18] | GI50 [19] | GI50 [20]
CC1OC(Oc2c(-c3cc(O)c(O)c(O)c3)oc3cc(O)cc(O)c3c2=O)C(O)C(O)C1O (stereo not given) | > 100 µM (inactive) | > 100 µM (inactive) | > 10 µM (inactive) | > 100 µM (inactive) | > 100 µM (inactive) | > 100 µM (inactive) | 56.6 µM (inactive) | > 100 µM (inactive) | > 100 µM (inactive) | > 100 µM (inactive) | > 100 µM (inactive) | 31 µM (inactive) | > 100 µM (inactive) | > 100 µM (inactive) | > 100 µM (inactive) | > 100 µM (inactive) | 96.8 µM (inactive) | > 100 µM (inactive) | > 100 µM (inactive) | > 100 µM (inactive)
C=CC[C@H]1O[Si](C(C)(C)C)(C(C)(C)C)[C@H](C)[C@H]1C | > 100 µM (inactive) | > 100 µM (inactive) | > 100 µM (inactive) | > 100 µM (inactive) | > 100 µM (inactive) | > 100 µM (inactive) | > 100 µM (inactive) | > 100 µM (inactive) | 24.3 µM (inactive) | > 100 µM (inactive) | > 100 µM (inactive) | > 100 µM (inactive) | > 100 µM (inactive) | > 100 µM (inactive) | > 10 µM (inactive) | > 100 µM (inactive) | 59.6 µM (inactive) | > 100 µM (inactive) | > 100 µM (inactive) | > 100 µM (inactive)
COc1cc([C@H]2OC[C@H]3[C@@H]2CO[C@@H]3c2cc(OC)c3c(c2)OCO3)cc(OC)c1OC | > 100 µM (inactive) | 46 µM (inactive) and 55.2 µM (inactive) | 45.9 µM (inactive) and > 10 µM (inactive) | 39.4 µM (inactive) and 40.9 µM (inactive) | 56 µM (inactive) and 27.9 µM (inactive) | 41.6 µM (inactive) and 70.3 µM (inactive) | 40 µM (inactive) and > 10 µM (inactive) | 55.6 µM (inactive) | 46.9 µM (inactive) and 60.7 µM (inactive) | 50.5 µM (inactive) and 95.1 µM (inactive) | 60.5 µM (inactive) and 50.5 µM (inactive) | 65.2 µM (inactive) | 12.9 µM (inactive) and > 10 µM (inactive) | 32.7 µM (inactive) and 20.7 µM (inactive) | 28 µM (inactive) and 35 µM (inactive) | 96.8 µM (inactive) | 17.3 µM (inactive) and 42.1 µM (inactive) | > 100 µM (inactive) | > 100 µM (inactive) | 79.4 µM (inactive) and 50.2 µM (inactive)
CC(Oc1ccccc1)C(=O)NNC(=O)OC(C)(C)C (stereo not given) | > 100 µM (inactive) | > 100 µM (inactive) | > 100 µM (inactive) | > 100 µM (inactive) | > 100 µM (inactive) | > 100 µM (inactive) | > 100 µM (inactive) | > 100 µM (inactive) | > 100 µM (inactive) | > 100 µM (inactive) | > 100 µM (inactive) | > 100 µM (inactive) | > 100 µM (inactive) | > 100 µM (inactive) | > 100 µM (inactive) | > 100 µM (inactive) | > 100 µM (inactive) | > 100 µM (inactive) | > 100 µM (inactive) | > 100 µM (inactive)
O=C1c2ccc3cc(CCl)cc(O)c3c2C(=O)c2cccc(O)c21 | > 10 µM (inactive) | 4.61 µM (inactive) | 1.07 µM (active) | > 10 µM (inactive) | 3.17 µM (inactive) | 1.1 µM (active) | 0.284 µM (active) | 3.38 µM (inactive) | 4.58 µM (inactive) | 4.79 µM (inactive) | 0.729 µM (active) | 0.169 µM (active) | 1.37 µM (inactive) | 3.28 µM (inactive) | 2.21 µM (inactive) | 1.5 µM (inactive) | 0.447 µM (active) | 0.145 µM (active) | > 10 µM (inactive) | 1.17 µM (inactive)
O=C1c2ccccc2C(=O)c2sc(Nc3ccccc3Cl)nc21 | 16.2 µM (inactive) | 19.8 µM (inactive) | 2.75 µM (inactive) | 14.3 µM (inactive) | 18.5 µM (inactive) | 10.7 µM (inactive) | 0.713 µM (active) | 16.7 µM (inactive) | 13.2 µM (inactive) | 15 µM (inactive) | 14.3 µM (inactive) | 2.41 µM (inactive) | 3.93 µM (inactive) | 3.69 µM (inactive) | 3.68 µM (inactive) | 7.5 µM (inactive) | 3.93 µM (inactive) | 4.15 µM (inactive) | 19.7 µM (inactive) | 8.34 µM (inactive)
Cc1ccc(/C=C2\CN(C)CC3C2=NC(=S)NC3c2ccc(C)cc2)cc1 (stereo not given) | > 86.7 µM (inactive) | 35.3 µM (inactive) | 13.8 µM (inactive) | 9.93 µM (inactive) | 16.1 µM (inactive) | 37.3 µM (inactive) | 31.3 µM (inactive) | > 100 µM (inactive) | 1.69 µM (inactive) | 32.1 µM (inactive) | 40.6 µM (inactive) | 22 µM (inactive) | 14.6 µM (inactive) | 24 µM (inactive) | 46.5 µM (inactive) | 52.1 µM (inactive) | 29.9 µM (inactive) | > 88.7 µM (inactive) | > 76.4 µM (inactive) | 62.4 µM (inactive)
CC1CN1C(=O)NCCCCCCNC(=O)N1CC1C (stereo not given) | > 100 µM (inactive) | 31.1 µM (inactive) | 14.7 µM (inactive) | > 100 µM (inactive) | > 100 µM (inactive) | 81.3 µM (inactive) | 11.9 µM (inactive) | 30.2 µM (inactive) | > 93.5 µM (inactive) | > 100 µM (inactive) | 70.3 µM (inactive) | > 100 µM (inactive) | 15.5 µM (inactive) | > 100 µM (inactive) | > 100 µM (inactive) | 61.8 µM (inactive) | 3.11 µM (inactive) | > 100 µM (inactive) | > 100 µM (inactive) | > 100 µM (inactive)
CCN(C(=O)N[C@@H](C)C(=O)N[C@@H](Cc1ccccc1)C(=O)OC)c1ccccc1 | > 100 µM (inactive) | > 100 µM (inactive) | > 100 µM (inactive) | > 100 µM (inactive) | 81.5 µM (inactive) | > 100 µM (inactive) | 28.4 µM (inactive) | > 100 µM (inactive) | 19.4 µM (inactive) | > 100 µM (inactive) | > 100 µM (inactive) | > 100 µM (inactive) | > 100 µM (inactive) | 71.6 µM (inactive) | 38.5 µM (inactive) | 23 µM (inactive) | 26 µM (inactive) | > 100 µM (inactive) | > 100 µM (inactive) | 49.1 µM (inactive)
CN(C)CCNc1ccc2c(=O)n(CCN(C)C)c(=O)n3c4ccccc4c(=O)c1c23 | 0.157 µM (active) | < 0.0216 µM (active) | < 0.01 µM (active) | 0.174 µM (active) | < 0.0164 µM (active) | 0.0269 µM (active) | < 0.01 µM (active) | 0.0185 µM (active) | 0.0516 µM (active) | 0.116 µM (active) | < 0.0174 µM (active) | 0.133 µM (active) | < 0.01 µM (active) | 0.0689 µM (active) | 0.0182 µM (active) | 0.0198 µM (active) | < 0.01 µM (active) | < 0.0208 µM (active) | 0.392 µM (active) | 0.34 µM (active)
